Holding throughout (type): cell-based
One assay deals with C2C12 cells. The experiment in a line: C2C12 myogenic assay. Set-up: key to myogenic assay: + indicates that the compound had an effect; -: − indicates that there was no significant effect in the respective assay; key to mean fusion index: ratio of nuclei fused per area to total nuclei in field. Particulars: for MYH4 (MFI) / fusion index, % of DMSO control: Fig. 5, equals mean of the two '% of control' values of the 4th table; for myogenic assay: summary Fig. 8E. The source says:
To corroborate their status as Notch inhibitors, we tested four of the five compounds (A, C, D, E) in an orthogonal assay for Notch function. Notch signalling plays an important role in myogenic differentiation, and blocking Notch signalling promotes myogenic differentiation in the myoblast cell line C2C12[27] (Fig. 5A). C2C12 cells can be maintained as myoblasts but upon serum starvation spontaneously differentiate to MYH4-positive multinucleated myotubes, a process which is accelerated by Notch blockade.
8000 C2C12 cells were seeded on gelatin (0.1%, Sigma-Aldrich, cat #G2500) coated cover slides (BD Bioscience) and cultivated in proliferation medium. For gelatin coating, 8-well cover slide chambers (BD Bioscience) were incubated for 60 min with 0.1% gelatin in PBS. The remaining liquid was aspirated, and gelatin was allowed to dry for 24 h. Cover slides were stored at 4 °C until use. Upon reaching 85% confluence cell culture medium was exchanged to differentiation medium to enhance differentiation into myocytes/myotubes. Cells were then treated with 10 µM of the respective compound for five days and DMSO-treated cells served as a base-line control. Next, cells were washed with 1 × cold PBS (ThermoFisher, cat #10010023) fixed with 4% paraformaldehyde (PFA, Sigma-Aldrich, cat #1.00496) in PBS for 10 min at room temperature and washed again with 1 × PBS. Fixed cells were either stored at 4 °C in PBS or directly processed for immunocytochemistry staining: For immunocytochemistry, cells were permeabilized for 10 min in 0.1% TritonX-100 / PBS, then washed in PBS and unspecific bindings sites were blocked in protein free blocking solution (DAKO, cat # × 0909) for 30 min at room temperature, followed by two times washing in PBS. Then, cells were incubated with primary antibody MYH4 (ThermoFisher) in blocking solution and 0.1% TritonX-100 in PBS for 1 h at room temperature. Next, cells were washed three times in PBS and incubated with secondary Alexa fluorophore coupled antibody (Invitrogen) in a 1:400 dilution. Labeling of F-actin filaments was conducted by phalloidin-TRITC (Sigma-Aldrich, cat # P1951) in a 1:2500 dilution. Cells were washed three times in PBS and incubated with DAPI (BD Bioscience cat # 564907) for 5 min at room temperature to stain DNA/nuclei. Finally, slides were fixed with mounting medium (ProLong Antifade mounting medium, ThermoFisher, cat #P36934). Bright field and immunocytochemistry images were taken using the SP8 LSM (Leica) at different magnifications and images were recorded as Z-stacks. Images were processed using the FijI (ImageJ) software. As controls, wells with and without differentiation medium were also stained to set the baseline and contrast the differences and stainings of cells with only secondary antibodies were used as negative controls to assess cross-reactivity and background staining. For calculating the MYH4 median fluorescence intensity (MFI) images have been converted into 8-bit greyscale and a standard color threshold was applied (ImageJ). Next, MFI signals per area were measured using ImageJ and divided by the median background intensity (MBI). The nuclei fusion index was calculated as the ratio of nuclei fused per area divided by the total number of nuclei in the field. A minimum of three images has been recorded for the calculations, and two replicate experiments were conducted. For calculations of MFI and fusion index see Supplemental Table 5.

Another assay has as its target γ-secretase complex (Homo sapiens, UniProt P49768). As to the kind of experiment: APP-C99 counter assay (GSI reporter assay). Set-up: AUC APP: scale not given here. The settings on record: for Hill-slope: 14p APP assay DR, bottom constrained to Emax of positive control LY-411575; for remaining activity at 10 µM / remaining activity at 25 µM / remaining activity at […]: 24 h, APP-C99 counter assay, read-out: 3p-DR in % of DMSO counter; for remaining activity at […]: 1,25µM; for AUC APP: area under the 14-point dose-response curve, replicates averaged. Summed up: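 Cells transfected with APP-C99 firefly luciferase reporter plus renilla normalization plasmid, seeded 24 h later onto compound plates and cultured 24 h. Dual luciferase read in triplicate per concentration; IC50 from variable-slope log(inhibitor) fit, with AUC also calculated from dose–response curves.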
For orientation: In a reporter assay the amount or activity of a reporter protein is the signal.

Assay [1] has as its system Notch downstream genes in tumour cell lines. As to the kind of experiment: Three dose response gene expression analysis (qRT-PCR), panel of cell lines. Also noted: key to gene expression: + indicates that the compound had an effect; -: − indicates that there was no significant effect in the respective assay. The settings on record: summary Fig. 8E. On the procedure: Total RNA from cell lines was isolated using the RNeasy Mini kit (cat #74104, Qiagen), according to the manufacturer’s instructions. qRT-PCR was performed as described elsewhere[51] with some minor modifications: RNA was reverse transcribed to cDNA using iScript Reverse Transcription Supermix (cat # 1708841, Bio-rad). cDNA was then diluted 1:5 in nuclease free H20. qRT-PCR was performed on a C1000 Touch thermal cycler (Bio-rad) and gene expression was detected with SsoAdvanced Universal SYBR Green Supermix (cat # 1725274, Bio-rad). Gene expression was determined by normalizing to GAPDH mRNA expression levels and fold expression change was calculated using the ΔΔCT method (ΔΔCT = ΔCt sample − Δct control). Primers used in qPCR are shown in Supplemental Table 9.
Adherent breast cancer cells were seeded in 24-well cell culture plates (ThermoFisher, Nunc, Delta surface, cat #144530) and T-ALL cells growing in suspension (Jurkat, RPMI-8402) were seeded in non-adherent 24-well plates (ThermoFisher, Nunc, cat […]). 60.000 cells were seeded and treated with 0.1, 1 and 10 µM of each compound. […] Cells were harvested 24 h post treatment and RNA isolation and gene expression analysis (qRT-PCR) was performed as described above.
In general terms: Quantitative PCR measures a nucleic acid by following its amplification.

Where “and” joins values, the source holds several entries; their conditions need not be identical. Equal entries are not always repeated.

`NC(=O)c1c(NC(=O)NCc2cccnc2)sc2c1CCC2` [compound D]: in the assay with C2C12 cells (10 µM, five days), the “expression of the differentiation marker MYH4” value is on record as “did not produce elevated MYH4 levels”; the “MYH4 (MFI)” value came to 108.7; the “fusion index, % of DMSO control” value was determined as 153.2. In addition, the myogenic assay entry with C2C12 cells is “-”. This compound also came in with a Hill-slope at γ-secretase complex (listed as CBK307578) of 0.0595. At γ-secretase complex, the remaining activity at 10 µM worked out at 119%, the remaining activity at 25 µM worked out at 134%, the remaining activity at […] was 78% and the “AUC APP” value is 449.6. Moreover, the gene expression result in assay [1] was “+”.

In the case of `Cc1nn(-c2nc3ccccc3s2)c(O)c1C1OC(=O)c2ccccc21` (stereo not shown) [compound E], in the assay with C2C12 cells (10 µM, five days), the “expression of the differentiation marker MYH4” value is “elevated expression”; the “MYH4 (MFI)” value turned out to be 477.8; the “fusion index, % of DMSO control” value stood at 290.1. The “mean MFI in % of control” value with C2C12 cells (10 µM, five days, DMSO ctrl = 100, experiments #1 and #2) is 561.7 % of control and 394.0 % of control. Besides, the “mean MFI” value in the assay with C2C12 cells (10 µM, five days, MYH4, experiments #1 and #2) was 6.9 and 6.2. Also, the “ratio MFI/MBI” value in the assay on C2C12 cells (10 µM, five days, MYH4, single images, experiments #1 and #2) was 6.3 and 6.7 and 7.6 and 5.1 and 6.8. Further, the mean fusion index with C2C12 cells (10 µM, five days, experiments #1 and #2) was 6.2 and 7.6. In addition, in the assay with C2C12 cells (10 µM, five days, single images, experiments #1 and #2), the ratio nuclei % was 5.9% and 6.4% and 6.2% and 7.9% and 6.8% and 8.0%. Besides, the myogenic assay result in the assay with C2C12 cells is reported as “+”. In addition, at γ-secretase complex, the Hill-slope is reported as -0.00246, the remaining activity at 10 µM came to 80.7%, the remaining activity at 25 µM was found to be 81.7% and the remaining activity at […] is 83.7%. Moreover, the “AUC APP” value at γ-secretase complex is reported as 684.1. Moreover, the gene expression entry in assay [1] was “+”.

Source of the values: article PMC13242511, “Disrupting Notch signalling by a small molecule inhibiting dihydroorotate dehydrogenase activity” (Scientific Reports, 2026).
